Measurements reported in patent US10450549B2, “Aryloxyphenoxypropionate tolerance in turfrgass species and use of AAD1 as a selectable marker” (Dow AgroSciences, LLC, priority 2004, dated 2019).

Columns and labels:
[1] = test system: AAD1 (v3)-transformed T1 Arabidopsis; assay: T1 Arabidopsis response to postemergence herbicide (2,4-D, dichlorprop, haloxyfop, fluroxypyr), % visual injury 2 WAT: AAD1 (v3) transformants; assay type: in vivo, Arabidopsis thaliana; conditions: for resistance/tolerance in AAD1 (v3)-transformed T1 Arabidopsis: haloxyfop 400-1,600 g ae/ha, fluroxypyr; for % Injury Ave / individuals with 20-40% injury / individuals with <20% injury / individuals with >40% injury / % Injury Range / % Injury 20-40% / % Injury <20% / % Injury >40%: 2 WAT; for % Injury 20-40% / % Injury <20% / % Injury >40%: number of individuals
Description: Freshly harvested T1 seed (transformed with native [AAD1 (v2)] or plant optimized [AAD1 (v3)] gene) was allowed to dry for 7 days at room temperature. T1 seed was sown in 26.5×51-cm germination trays (T.O. Plastics Inc., Clearwater, Minn.), each receiving a 200 mg aliquots of stratified T1 seed (˜10,000 seed) that had previously been suspended in 40 ml of 0.1% agarose solution and stored at 4° C. for 2 days to complete dormancy requirements and ensure synchronous seed germination.
Sunshine Mix LP5 (Sun Gro Horticulture Inc., Bellevue, Wash.) was covered with fine vermiculite and subirrigated with Hoagland's solution until wet, then allowed to gravity drain. Each 40 ml aliquot of stratified seed was sown evenly onto the vermiculite with a pipette and covered with humidity domes (KORD Products, Bramalea, Ontario, Canada) for 4-5 days. Domes were removed 1 day prior to initial transformant selection using glufosinate postemergence spray (selecting for the co-transformed PAT gene).
Five to six days after planting (DAP) and again 10 DAP, T1 plants (cotyledon and 2-4-1f stage, respectively) were sprayed with a 0.2% solution of Liberty herbicide (200 g ai/L glufosinate, Bayer Crop Sciences, Kansas City, Mo.) at a spray volume of 10 ml/tray (703 L/ha) using a DeVilbiss compressed air spray tip to deliver an effective rate of 280 g ai/ha glufosinate per application. Survivors (plants actively growing) were identified 5-7 days after the final spraying and transplanted individually into 3-inch pots prepared with potting media (Metro Mix 360). Transplanted plants were covered with humidity domes for 3-4 days and placed in a 22° C. growth chamber as before. Domes were subsequently removed and plants moved to the greenhouse (22+5° C., 50+30% RH, 14 h light:10 dark, minimum 500 μE/m^2s^1 natural+supplemental light) at least 1 day prior to testing for the ability of AAD1 (v3) (plant optimized gene) or AAD1 (v2) (native microbial gene) to provide phenoxy auxin herbicide resistance.
(§1) Random individual T1 plants selected for glufosinate resistance above were confirmed for expression of the PAT protein using a PAT ELISA kit (Part no. 7000045, Strategic Diagnostics, Inc., Newark, Del.) to non-destructively confirm fidelity of selection process (manufacturer's protocol). Plants were then randomly assigned to various rates of phenoxy herbicides (dichlorprop or 2,4-D). […] Elevated rates were applied in subsequent trials (50, 200, 800, or 3200 g ae/ha).
(§2) All auxin herbicide applications were made using the DeVilbiss sprayer as described above to apply 703 L/ha spray volume (0.4 ml solution/3-inch pot) or applied by track sprayer in a 187 L/ha spray volume. […] Dichlorprop used was technical grade (Sigma, St. Louis, Mo.) dissolved in DMSO and diluted in water (<1% DMSO final concentration). As herbicide rates increased beyond 800 g ae/ha, the pH of the spray solution became exceedingly acidic, burning the leaves of young, tender Arabidopsis plants and complicating evaluation of the primary effects of the herbicides. It became standard practice to apply these high rates of phenoxy herbicides in 200 mM Tris buffer (pH 9.0) to a final pH of ˜7-8.
(§3) Although Arabidopsis, being a dicot, is not an optimal system for testing ACCase-inhibiting AOPP grass herbicides, AAD1 (v3)-transformed T1 plants were subjected to elevated rates (400-1600 g ae/ha) of RS-haloxyfop acid (internally synthesized) that do cause growth abnormalities and death of wildtype Arabidopsis using the DeVilbiss sprayer as described above. Injury ratings were taken 7 and 14 days after treatment. Likewise, T1 individuals were treated with the pyridyloxyacetate auxin herbicide, fluroxypyr.
Table 16. […] Response is presented in terms of % visual injury 2 WAT. […] Since each T1 is an independent transformation event, one can expect significant variation of individual T1 responses within a given rate. An arithmetic mean and standard deviation is presented for each treatment. […]

[2] = test system: PAT/Cry1F-transformed Arabidopsis; assay: T1 Arabidopsis spray test, % visual injury 2 WAT: PAT/Cry1F transformed control; assay type: in vivo, Arabidopsis thaliana; conditions: for % Injury 20-40% / % Injury <20% / % Injury >40%: number of individuals
Text: as §1, §2, §3
Table 16. […] Response is presented in terms of % visual injury 2 WAT. […] Since each T1 is an independent transformation event, one can expect significant variation of individual T1 responses within a given rate. An arithmetic mean and standard deviation is presented for each treatment. The range in individual response is also indicated in the last column for each rate and transformation. PAT/Cry1F-transformed Arabidopsis served as an auxin-sensitive transformed control. Wildtype Arabidopsis is untransformed.
(§4) Table 17. T1 Arabidopsis response to a range of dichlroprop rates applied postemergence. Response is presented in terms of % visual injury 2 WAT. […] Since each T1 is an independent transformation event, one can expect significant variation of individual T1 responses within a given rate. An arithmetic mean and standard deviation is presented for each treatment. The range in individual response is also indicated in the last column for each rate and transformation. PAT/Cry1F-transformed Arabidopsis served as an auxin-sensitive transformed control. Wildtype Arabidopsis is untransformed.
as §4, with “18.” for “17.”, “haloxyfop” for “dichlroprop”, “postemergence at artificially high rates attempting to show tolerance of the dicot Arabidopsis to the graminicide.” for “postemergence.”

AAD1 (v1) = target: T1, AAD1 (v1) (Sphingobium herbicidovorans, UniProt Q8KSC8); assay: Colorimetric phenol detection assay of AAD1 (v1) activity (purified enzyme or E. coli extract); assay type: biochemical; conditions: for A510, AAD1 / A510, AAD1 (10x): substrate 1 mM; for A510, AAD1: 1 μg purified AAD1 (v1) per 0.16 ml assay; for A510, AAD1 (10x): 10 μg purified AAD1 (v1) per 0.16 ml assay
T1 construct: made in house; host or cells: E. coli BL-21 Star (DE3), plasmid pDAB3203

[3] = PAT/Cry1F (transformed control), 50 g ae/ha
[4] = PAT/Cry1F (transformed control), 200 g ae/ha
[5] = PAT/Cry1F (transformed control), 800 g ae/ha
[6] = Rebuilt AAD1 (v3) gene, 50 g ae/ha
[7] = Rebuilt AAD1 (v3) gene, 200 g ae/ha
[8] = Rebuilt AAD1 (v3) gene, 800 g ae/ha

T1 sequence (Q8KSC8 whole entry): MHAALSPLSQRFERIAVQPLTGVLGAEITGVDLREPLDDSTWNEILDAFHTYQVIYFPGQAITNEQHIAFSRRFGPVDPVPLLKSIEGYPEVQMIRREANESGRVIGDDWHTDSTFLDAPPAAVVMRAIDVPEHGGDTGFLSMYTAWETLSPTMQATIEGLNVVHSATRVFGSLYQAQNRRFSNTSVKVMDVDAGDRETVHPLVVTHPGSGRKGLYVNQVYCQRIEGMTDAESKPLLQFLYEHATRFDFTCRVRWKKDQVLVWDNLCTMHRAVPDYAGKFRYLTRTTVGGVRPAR

Structure (SMILES): Nc1c(Cl)c(F)nc(OCC(=O)O)c1Cl [Fluroxypyr]
- resistance/tolerance in AAD1 (v3)-transformed T1 Arabidopsis [1]: No resistance was observed

Structure (SMILES): O=C(O)COc1ccc(Cl)cc1Cl [2,4-D, 2,4-dichlorophenoxyacetic acid]
- % Injury Ave [2, 3]: 90.7%
- individuals with 20-40% injury [2, 3]: 0
- individuals with <20% injury [2, 3]: 0
- individuals with >40% injury [2, 3]: 15
- % Injury Ave [2, 4]: 97.2%
- individuals with 20-40% injury [2, 4]: 0
- individuals with <20% injury [2, 4]: 0
- individuals with >40% injury [2, 4]: 15
- % Injury Ave [2, 5]: 100.0%
- individuals with 20-40% injury [2, 5]: 0
- individuals with <20% injury [2, 5]: 0
- individuals with >40% injury [2, 5]: 15
- injury of some AAD1 (v3) T1 individuals ([1]; 3,200 g ae/ha): little or no injury
- T1 plants uninjured ([1]; AAD1 (v3), 200 g ae/ha): > 73%
- % Injury Ave [1, 6]: 24.3%
- individuals with 20-40% injury [1, 6]: 1
- individuals with <20% injury [1, 6]: 10
- individuals with >40% injury [1, 6]: 5
- % Injury Ave [1, 7]: 14%
- individuals with 20-40% injury [1, 7]: 4
- individuals with <20% injury [1, 7]: 11
- individuals with >40% injury [1, 7]: 1
- % Injury Ave [1, 8]: 14.7%
- individuals with 20-40% injury [1, 8]: 4
- individuals with <20% injury [1, 8]: 11
- individuals with >40% injury [1, 8]: 1
- activity of AAD1 (v1) E. coli extract on substrate (AAD1 (v1); 0.5 mM substrate, 4 μl extract, 15 min): cleaved
- Vmax (A510 units) (AAD1 (v1); AAD1 (v1) (pDAB3203), MOPS pH 6.75): 0.11 A510 units
- A510, AAD1 (AAD1 (v1); Table 3, 15 min): 0.034
- A510, AAD1 (10x) (AAD1 (v1); Table 3, 15 min): 0.383
- A510 (AAD1 (v1); Table 8, 1 mM, 27 μg crude recombinant AAD1 (v1) extract from E. coli): 0.177
- % 2,4-D (AAD1 (v1); Table 8, relative to 2,4-D, crude AAD1 (v1) extract): 100%
- apparent Vmax, AAD1 (v1) (AAD1 (v1); partially purified enzyme): 0.11 A510 units
- kcat (AAD1 (v1); purified AAD1 (v1)): 2.7 min⁻¹
- Vmax ± SE (AAD1 (v1); purified AAD1 (v1), Michaelis-Menten fit): 0.57 ± 0.00 μmol min^−1 mg^−1 AAD1

Structure (SMILES): CC(Oc1ccc(Oc2ncc(C(F)(F)F)cc2Cl)cc1)C(=O)O (stereo not drawn) [haloxyfop]
- % Injury Ave ([2]; 100 g ae/ha, PAT/Cry1F): 0.0%
- % Injury Range ([2]; 100 g ae/ha, PAT/Cry1F): 0%
- % Injury Ave ([2]; 200 g ae/ha, PAT/Cry1F): 10.0%
- % Injury Range ([2]; 200 g ae/ha, PAT/Cry1F): 10%
- % Injury Ave ([2]; 400 g ae/ha, PAT/Cry1F): 27.5%
- % Injury Range ([2]; 400 g ae/ha, PAT/Cry1F): 20-30%
- % Injury Ave ([2]; 800 g ae/ha, PAT/Cry1F): 78.8%
- % Injury Range ([2]; 800 g ae/ha, PAT/Cry1F): 70-85%
- % Injury Ave ([2]; 1600 g ae/ha, PAT/Cry1F): 47.5%
- % Injury Range ([2]; 1600 g ae/ha, PAT/Cry1F): 80-100%
- % Injury 20-40% ([2]; 100 g ae/ha, PAT/Cry1F): 0
- % Injury <20% ([2]; 100 g ae/ha, PAT/Cry1F): 4
- % Injury >40% ([2]; 100 g ae/ha, PAT/Cry1F): 0
- % Injury 20-40% ([2]; 200 g ae/ha, PAT/Cry1F): 0
- % Injury <20% ([2]; 200 g ae/ha, PAT/Cry1F): 4
- % Injury >40% ([2]; 200 g ae/ha, PAT/Cry1F): 0
- % Injury 20-40% ([2]; 400 g ae/ha, PAT/Cry1F): 4
- % Injury <20% ([2]; 400 g ae/ha, PAT/Cry1F): 0
- % Injury >40% ([2]; 400 g ae/ha, PAT/Cry1F): 0
- % Injury 20-40% ([2]; 800 g ae/ha, PAT/Cry1F): 0
- % Injury <20% ([2]; 800 g ae/ha, PAT/Cry1F): 0
- % Injury >40% ([2]; 800 g ae/ha, PAT/Cry1F): 4
- % Injury 20-40% ([2]; 1600 g ae/ha, PAT/Cry1F): 0
- % Injury <20% ([2]; 1600 g ae/ha, PAT/Cry1F): 0
- % Injury >40% ([2]; 1600 g ae/ha, PAT/Cry1F): 4
- % Injury Ave ([1]; 100 g ae/ha, AAD1 v3): 0.0%
- % Injury Range ([1]; 100 g ae/ha, AAD1 v3): 0%
- % Injury Ave ([1]; 200 g ae/ha, AAD1 v3): 0.0%
- % Injury Range ([1]; 200 g ae/ha, AAD1 v3): 0%
- % Injury Ave ([1]; 400 g ae/ha, AAD1 v3): 6.3%
- % Injury Range ([1]; 400 g ae/ha, AAD1 v3): 0-20%
- % Injury Ave ([1]; 800 g ae/ha, AAD1 v3): 46.3%
- % Injury Range ([1]; 800 g ae/ha, AAD1 v3): 0-85%
- % Injury Ave ([1]; 1600 g ae/ha, AAD1 v3): 65.0%
- % Injury Range ([1]; 1600 g ae/ha, AAD1 v3): 0-100%
- resistance/tolerance in AAD1 (v3)-transformed T1 Arabidopsis [1]: increased tolerance
- % Injury 20-40% ([1]; 100 g ae/ha, AAD1 v3): 0
- % Injury <20% ([1]; 100 g ae/ha, AAD1 v3): 4
- % Injury >40% ([1]; 100 g ae/ha, AAD1 v3): 0
- % Injury 20-40% ([1]; 200 g ae/ha, AAD1 v3): 0
- % Injury <20% ([1]; 200 g ae/ha, AAD1 v3): 4
- % Injury >40% ([1]; 200 g ae/ha, AAD1 v3): 0
- % Injury 20-40% ([1]; 400 g ae/ha, AAD1 v3): 1
- % Injury <20% ([1]; 400 g ae/ha, AAD1 v3): 3
- % Injury >40% ([1]; 400 g ae/ha, AAD1 v3): 0
- % Injury 20-40% ([1]; 800 g ae/ha, AAD1 v3): 1
- % Injury <20% ([1]; 800 g ae/ha, AAD1 v3): 1
- % Injury >40% ([1]; 800 g ae/ha, AAD1 v3): 2
- % Injury 20-40% ([1]; 1600 g ae/ha, AAD1 v3): 0
- % Injury <20% ([1]; 1600 g ae/ha, AAD1 v3): 1
- % Injury >40% ([1]; 1600 g ae/ha, AAD1 v3): 3
- A510, AAD1 (AAD1 (v1); Table 4): 0.172
- A510, AAD1 (10x) (AAD1 (v1); Table 4): 1.63

Structure (SMILES): C[C@@H](Oc1ccc(Oc2cnc3cc(Cl)ccc3n2)cc1)C(=O)O [quizalofop]
- activity relative to the dichlorprop rate (AAD1 (v1); purified AAD1 (v1), 1 mM substrate): 76%
